Data set [1] can be described thus: Cyclic voltammetry of menadione derivatives. In kind it is physicochemical. As to conditions: for Epa1 / Epc2 / Ipc1/Ipa1 / E^1½ / ΔEp (first wave): DMSO; for Epa1 / Epc2: 0.1 M n-Bu4NPF6, v = 200 mV s^−1, reference KCl(3 M)/Ag/AgCl; for Epa1 / Ipc1/Ipa1 / E^1½: first wave; for Epc2 / E^2½ / Epa2 / Ipc2/Ipa2 / ΔEp (second wave): second wave; for Ipc1/Ipa1 / ΔEp (first wave): 0.1 M n-Bu4NPF6, v = 200 mV s^−1; for E^1½ / E^2½: E½ = (Epc+Epa)/2; for E^1½: 0.1 M n-Bu4NPF6, reference KCl(3 M)/Ag/AgCl; for E^2½ / Epa2 / Ipc2/Ipa2 / ΔEp (second wave): irr: irreversible reduction; for ΔEp (first wave) / ΔEp (second wave): ΔE = Epa-Epc.

Data set [2] addresses T1, Schistosoma mansoni thioredoxin glutathione reductase (SmTGR) (Schistosoma mansoni, UniProt Q962Y6).
T1 sequence (Q962Y6 1-598): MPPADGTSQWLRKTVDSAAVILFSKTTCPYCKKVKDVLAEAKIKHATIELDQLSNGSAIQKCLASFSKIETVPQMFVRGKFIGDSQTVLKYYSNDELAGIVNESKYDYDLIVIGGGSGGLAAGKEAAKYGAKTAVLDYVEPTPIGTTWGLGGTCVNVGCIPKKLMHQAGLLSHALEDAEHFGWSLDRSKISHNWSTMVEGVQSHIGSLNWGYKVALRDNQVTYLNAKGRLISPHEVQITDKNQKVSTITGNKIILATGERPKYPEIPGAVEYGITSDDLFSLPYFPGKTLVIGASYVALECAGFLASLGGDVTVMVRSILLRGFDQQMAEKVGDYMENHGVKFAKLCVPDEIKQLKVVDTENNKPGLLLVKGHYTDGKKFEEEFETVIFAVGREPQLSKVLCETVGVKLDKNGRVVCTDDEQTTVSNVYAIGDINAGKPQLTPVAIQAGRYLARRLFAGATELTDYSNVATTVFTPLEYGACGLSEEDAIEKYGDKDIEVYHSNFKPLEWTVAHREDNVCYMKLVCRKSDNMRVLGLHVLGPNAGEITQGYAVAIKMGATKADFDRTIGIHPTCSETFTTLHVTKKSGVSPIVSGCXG
In words: SmTGR DTNB assay. In kind it is biochemical.

For the next data set, the system named is S. mansoni worms. The experiment in a line: Antischistosomal activity against adult, ex vivo worms. As to conditions: for antischistosomal activity against cultured ex vivo worms: 50 μM compound alone. In kind it is cell-based, Schistosoma mansoni.
For data set [3], the target named is T2, Placenta wild type hTrxR (Homo sapiens, UniProt Q16881).
T2 sequence (Q16881 1-499 isoform Q16881-5): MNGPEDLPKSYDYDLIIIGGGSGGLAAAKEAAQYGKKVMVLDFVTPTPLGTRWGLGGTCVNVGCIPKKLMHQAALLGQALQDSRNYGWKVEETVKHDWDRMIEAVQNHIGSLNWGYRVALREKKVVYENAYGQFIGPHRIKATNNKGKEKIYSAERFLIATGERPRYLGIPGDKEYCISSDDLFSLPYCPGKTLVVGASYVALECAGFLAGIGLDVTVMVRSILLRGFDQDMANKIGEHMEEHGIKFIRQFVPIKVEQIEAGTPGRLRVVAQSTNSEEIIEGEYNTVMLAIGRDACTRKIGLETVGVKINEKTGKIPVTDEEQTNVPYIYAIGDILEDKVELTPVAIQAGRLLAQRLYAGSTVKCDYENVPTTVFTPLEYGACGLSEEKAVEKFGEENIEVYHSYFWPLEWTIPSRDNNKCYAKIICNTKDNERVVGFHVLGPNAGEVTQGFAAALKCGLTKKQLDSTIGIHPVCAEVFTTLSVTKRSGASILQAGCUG
The experiment in a line: hTrxR DTNB assay. In kind it is biochemical.

In the next data set the target is T3, Sec498Cys TrxR (Homo sapiens, UniProt Q16881).
T3 sequence (Q16881 with tags, fused parts or gaps isoform Q16881-5): T2 sequence (Q16881 1-499 isoform Q16881-5) with U498C
In words: hTrxR mutant DTNB assay. In kind it is biochemical.

Data set [4] addresses T2, Placenta wild type hTrxR. In words: hTrxR Trx assay. As to conditions: for IC50: IC50 hTrxR, text summary spanning the Trx assay and the DTNB assay. In kind it is biochemical.
Data set [5] concerns the target T4, human glutathione reductase (hGR) (Homo sapiens, UniProt P00390).
T4 sequence (P00390 1-479 isoform P00390-2): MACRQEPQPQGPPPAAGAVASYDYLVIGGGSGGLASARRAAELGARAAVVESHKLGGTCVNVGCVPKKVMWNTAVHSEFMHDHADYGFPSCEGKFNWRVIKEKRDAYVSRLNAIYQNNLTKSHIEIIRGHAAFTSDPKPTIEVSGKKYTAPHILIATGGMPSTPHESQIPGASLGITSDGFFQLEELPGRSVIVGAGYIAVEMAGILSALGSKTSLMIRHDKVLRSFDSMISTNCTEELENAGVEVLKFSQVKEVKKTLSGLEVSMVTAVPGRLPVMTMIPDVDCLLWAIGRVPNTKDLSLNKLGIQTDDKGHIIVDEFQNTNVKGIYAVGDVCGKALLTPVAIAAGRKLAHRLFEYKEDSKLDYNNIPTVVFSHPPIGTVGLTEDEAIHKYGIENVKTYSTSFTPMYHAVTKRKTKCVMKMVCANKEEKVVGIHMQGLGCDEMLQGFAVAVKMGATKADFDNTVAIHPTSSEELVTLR
The experiment in a line: hGR assay. In kind it is biochemical.

A short description of data set [6]: Cytotoxicity against human MRC-5 cells. In kind it is cell-based. As to conditions: human lung MRC-5 fibroblasts (MRC-5SV2 cells).
Data set [7] is described as follows: Glutathionylation reaction kinetics. In kind it is physicochemical. As to conditions: pH 7.5.
[8] abbreviates: 50 μM with hemoglobin 10 μM, 22h incubation.

Consider eight molecules from PMC4804716 (The FEBS journal, 2015).

Each structure is given as a SMILES string. Substitutions are numbered along the chain they refer to. Read-outs that look alike come from different tables or passages of the source. Some results are limits rather than exact numbers.

As usually defined, the IC50 is the concentration at which inhibition is half-maximal. `CC1=C(COc2ccc(C#N)cc2)C(=O)c2ccccc2C1=O` [Compound 2, 4-((3-Methyl-1,4-dioxo-1,4-dihydronaphthalen-2-yl)methoxy)benzonitrile]: in data set [1], the Epa1 is on record as −0.492 V, the Epc2 is reported as −1.154 V, the Ipc1/Ipa1 is recorded as 2.29 and the “E^1½” value was −0.556 V. Also, in [1], the “E^2½” value is on record as −1.127 V, the Epa2 is recorded as −1.100 V, the Ipc2/Ipa2 stood at 2 and the “ΔEp (first wave)” value is recorded as 128 mV. The “ΔEp (second wave)” value in data set [1] was 54 mV. Besides, the ΔE½ in data set [1] (ΔE½ = E^1½-E^2½) was 571 mV. The IC50 in data set [2] is 462 nM. Further, the “antischistosomal activity against cultured ex vivo worms” value (shortened to “antischistosomal activity”) with S. mansoni worms is reported as “(moderately) active”. In the data set with S. mansoni worms (setting [8]), this molecule returned a female worms killed of 100% and a male worms killed of 50%. Besides, at Placenta wild type hTrxR [3], the IC50 is 1200 nM. On Sec498Cys TrxR, this molecule displayed an IC50 of 6000 nM. The IC50 against Placenta wild type hTrxR [4] is 1200 to 1500 nM. In data set [5], this molecule showed a concentration for half-maximal inhibition (IC50) of 8500 nM.
As to `CC1=C(COc2ccc(C(=O)O)cc2)C(=O)c2ccccc2C1=O` [Compound 1, 4-((3-Methyl-1,4-dioxo-1,4-dihydronaphthalen-2-yl)methoxy)benzoic acid], in data set [1], the Epa1 is on record as −0.532 V, the Epc2 was −1.265 V, the Ipc1/Ipa1 was 1.27 and the “E^1½” value is reported as −0.580 V. In [1], the “E^2½” value is listed as “irr”, the Epa2 entry is given as “irr”, the Ipc2/Ipa2 entry is reported as “irr” and the “ΔEp (first wave)” value turned out to be 96 mV. Moreover, the “ΔEp (second wave)” value in [1] is “irr”. Besides, the IC50 at 3 days in [6] turned out to be 6550 nM. Also, the IC50 in data set [2] came out at 482 nM. In addition, the “antischistosomal activity” value with S. mansoni worms was “able to kill cultured adult worms”. Besides, at Placenta wild type hTrxR [3], the IC50 was 3000 nM. At Sec498Cys TrxR, this molecule showed an IC50 of 40000 nM. For the same molecule, the IC50 against Placenta wild type hTrxR [4] was in the range of 2000 to 3000 nM. In data set [5], this molecule gave an IC50 of 2300 nM.
As for `CC1=C(COc2ccc(Br)cc2)C(=O)c2ccccc2C1=O` [Compound 5, 2-((4-Bromophenoxy)methyl)-3-methylnaphthalene-1,4-dione], in data set [1], the Epc2 was −1.158 V, the Ipc1/Ipa1 amounted to 1.89, the “E^2½” value is “irr” and the Epa2 result is “irr”. For the same molecule, in data set [1], the Ipc2/Ipa2 entry was “irr”, the “ΔEp (first wave)” value is 119 mV and the “ΔEp (second wave)” value is “irr”. The IC50 in data set [2] stood at 784 nM. The molecule also gave a concentration for half-maximal inhibition (IC50) against Placenta wild type hTrxR [3] of 800 nM. The IC50 at Sec498Cys TrxR was above 100000 nM. At Placenta wild type hTrxR [4], this molecule gave a 50% inhibitory concentration (IC50) of 800 nM. The molecule also showed an IC50 in [5] above 5000 nM.
For the molecule `COc1c(F)cc(OCC2=C(C)C(=O)c3ccccc3C2=O)cc1F` [Compound 3, 2-((3,5-Difluoro-4-methoxyphenoxy)methyl)-3-methylnaphthalene-1,4-dione], the IC50 in data set [2] is 407 nM; on Placenta wild type hTrxR [3], 2000 nM; at Sec498Cys TrxR it was above 100000 nM; against Placenta wild type hTrxR [4], 2000 nM; in [5], above 25000 nM. Moreover, in the data set with S. mansoni worms, the “antischistosomal activity” value is reported as “most potent”.
In data set [1], `N#Cc1ccc(OCC2=C(C(F)F)C(=O)c3ccccc3C2=O)cc1` [Compound 8, 4-((3-(Difluoromethyl)-1,4-dioxo-1,4-dihydronaphthalen-2-yl)methoxy)benzonitrile] displayed an Epa1 of −0.244 V. Moreover, in data set [1], the Ipc1/Ipa1 amounted to 3.31. Also, the “E^1½” value in data set [1] was −0.329 V. Besides, the “ΔEp (first wave)” value in data set [1] came to 170 mV. The molecule further registered an IC50 at 3 days in data set [6] of 6700 nM. The IC50 in data set [2] was 144 nM; against Placenta wild type hTrxR [3] it was 14 nM; at Sec498Cys TrxR it was 370 nM; at Placenta wild type hTrxR [4] it was 13 to 14 nM; in data set [5], 2100 nM. Further, the “antischistosomal activity” value with S. mansoni worms is “inactive”. Besides, in the data set on S. mansoni worms (50 μM, with or without human red blood cells (10 μl/well)), the “killing of worms whether RBCs were present or not” value is reported as “no effect on killing the worms”. Also, the “decrease of the k2 values compared to the difluoromenadione itself” value in data set [7] is around 10 fold.
Consider `O.O.O.O=C([O-])[C@H]([O-])[C@@H]([O-])C(=O)[O-].O=C([O-])[C@H]([O-])[C@@H]([O-])C(=O)[O-].[K+].[K+].[Sb+3].[Sb+3]` [PAT, potassium antimonyl tartrate, reference compound], for which the IC50 in data set [2] (read-out: IC50 SmTGR assay, pH 7, 25°C, 100 μM NADPH, 3 mM DTNB) turned out to be 173 nM. The dead worms in the data set with S. mansoni worms (drug reference, after two days) came out at 100%.
As for `CC1=C(COc2cccc(C(F)(F)F)c2)C(=O)c2ccccc2C1=O` [Compound 6, 2-Methyl-3-((3-(trifluoromethyl)phenoxy)methyl)naphthalene-1,4-dione], the IC50 in [2] was 166 nM; on Placenta wild type hTrxR [3] it was 1500 nM; at Sec498Cys TrxR, above 50000 nM; against Placenta wild type hTrxR [4], 1500 to 3000 nM; in data set [5] it was 600 nM. The “antischistosomal activity” value in the data set with S. mansoni worms is “inactive”. Besides, the “IC50 fold higher for hTrxR than for SmTGR” value at Placenta wild type hTrxR [4] (selectivity hTrxR versus SmTGR) is “around 10 fold”.
For the molecule `CC1=C(COc2ccc(Cl)cc2)C(=O)c2ccccc2C1=O` [Compound 4, 2-((4-Chlorophenoxy)methyl)-3-methylnaphthalene-1,4-dione], the IC50 is 457 nM in [2]; 700 nM against Placenta wild type hTrxR [3]; above 100000 nM on Sec498Cys TrxR; 700 nM on Placenta wild type hTrxR [4]; 5500 nM in [5].
